Like-named read-outs stand apart in the source and are kept apart here. *1 amine or outer side, *2 acyl side, *3 side chain or, on linkers, in order; H or OH if unused. Where a SMILES comes first, the peptide text is derived from it. Bridges are numbered along the chain shown (N, C = ends). [ ]: non-standard residue; d: D form. X2 = O=C(C1CC2CC1C([*:1])C2)[*:2]; X1 = O=C(OCCC[*:1])[*:2]
How the values were obtained:
GPIIb/IIIa = target: T1, GPIIb/IIIa (Homo sapiens, UniProt P05106+P08514); assay: Fibrinogen binding ELISA (competitive binding ELISA: inhibition of fibrinogen binding to GPIIb/IIIa)
T1 construct: purchased Enzyme Research Laboratories (South Bend, Ind.)
T1 sequence (P08514 32-887 limits assumed): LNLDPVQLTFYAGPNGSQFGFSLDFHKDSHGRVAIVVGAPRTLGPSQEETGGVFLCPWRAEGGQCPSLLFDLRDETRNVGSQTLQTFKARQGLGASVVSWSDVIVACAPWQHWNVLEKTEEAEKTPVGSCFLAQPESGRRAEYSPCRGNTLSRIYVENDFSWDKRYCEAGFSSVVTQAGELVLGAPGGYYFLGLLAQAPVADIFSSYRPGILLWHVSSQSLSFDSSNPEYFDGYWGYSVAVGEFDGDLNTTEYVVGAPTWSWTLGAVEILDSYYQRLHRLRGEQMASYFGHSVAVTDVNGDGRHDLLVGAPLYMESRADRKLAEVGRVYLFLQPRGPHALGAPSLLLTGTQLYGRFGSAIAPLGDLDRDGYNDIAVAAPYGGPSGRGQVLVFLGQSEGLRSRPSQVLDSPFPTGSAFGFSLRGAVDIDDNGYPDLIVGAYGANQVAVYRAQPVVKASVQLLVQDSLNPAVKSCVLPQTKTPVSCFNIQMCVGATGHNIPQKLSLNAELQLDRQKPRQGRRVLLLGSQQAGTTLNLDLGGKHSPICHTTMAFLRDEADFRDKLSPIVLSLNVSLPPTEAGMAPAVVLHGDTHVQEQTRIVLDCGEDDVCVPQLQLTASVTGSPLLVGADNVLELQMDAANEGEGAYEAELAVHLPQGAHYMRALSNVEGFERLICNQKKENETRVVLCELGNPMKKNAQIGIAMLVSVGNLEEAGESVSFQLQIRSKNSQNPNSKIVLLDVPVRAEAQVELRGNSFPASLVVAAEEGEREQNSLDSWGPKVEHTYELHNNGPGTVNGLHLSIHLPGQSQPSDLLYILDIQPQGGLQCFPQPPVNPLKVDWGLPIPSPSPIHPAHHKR
T1 sequence (P05106 27-788): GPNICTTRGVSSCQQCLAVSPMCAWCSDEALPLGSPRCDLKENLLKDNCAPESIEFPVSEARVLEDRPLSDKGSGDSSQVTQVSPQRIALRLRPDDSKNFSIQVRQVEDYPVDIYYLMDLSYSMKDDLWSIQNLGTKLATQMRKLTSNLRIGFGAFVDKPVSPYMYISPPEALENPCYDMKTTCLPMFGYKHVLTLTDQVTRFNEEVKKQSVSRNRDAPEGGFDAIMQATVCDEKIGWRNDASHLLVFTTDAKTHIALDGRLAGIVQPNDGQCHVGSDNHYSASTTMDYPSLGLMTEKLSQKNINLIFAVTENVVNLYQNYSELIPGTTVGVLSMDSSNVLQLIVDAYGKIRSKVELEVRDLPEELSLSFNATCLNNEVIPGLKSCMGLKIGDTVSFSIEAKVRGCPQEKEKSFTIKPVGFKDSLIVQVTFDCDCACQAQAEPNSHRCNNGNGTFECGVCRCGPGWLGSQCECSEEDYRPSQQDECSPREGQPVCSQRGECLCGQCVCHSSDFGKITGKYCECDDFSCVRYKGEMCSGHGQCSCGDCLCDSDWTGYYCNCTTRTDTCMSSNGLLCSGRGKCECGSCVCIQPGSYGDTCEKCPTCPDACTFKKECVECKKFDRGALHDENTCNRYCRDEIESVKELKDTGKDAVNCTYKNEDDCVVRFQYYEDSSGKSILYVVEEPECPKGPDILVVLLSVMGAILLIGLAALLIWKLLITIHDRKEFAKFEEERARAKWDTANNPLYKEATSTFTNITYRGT
Method: A 96-well Maxisorp plate (Nunc) was coated with GPIIb/IIIa (10 μg mL^−1, 100 μL) and incubated at 4° C. overnight. The plate was washed (5×) with buffer (50 mM Tris-HCl, 100 mM NaCl, 2 mM CaCl2, 0.05% Tween20, pH 7.4). Blocking solution (3.5% BSA, 100 μL) was added to the well and incubated at 37° C. for 3 hours. The plate was washed (5×) with buffer. Peptides (50 μL) and fibrinogen (40nM, 50 μL) were added to the plate and incubated at room temperature for 3 hours. The plate was washed (5×) and antibody (goat polyclonal to fibrinogen (HRP), 1:20,000 dilution, 100 μL) was added to the plate and incubated for 1 hour at room temperature. The plate was washed (5×) and substrate (2,2′-azino-bis(3-ethylbenzthiazoline-6-sulphonic acid, ABTS, 100 μL) was added to the wells and allowed to react for 5 minutes. The absorbance was measured (Perkin Elmer Wallac Victor2 1420 Multilabel Counter) at 405 nm. The data was analyzed using Graphpad Prism 5.
Glycoprotein Iib-IIIa (GPIIb/IIIa) is present on platelets and its binding to fibrinogen has been associated with platelet aggregation.
A competitive binding ELISA was used to determine the potency of the multivalent RGD peptides. GPIIb/IIIa is known to contain the integrins αIIβ and β3, which bind RGD peptide sequences. Fibrinogen is also known to bind to these integrins. The ELISA was performed to quantitate the inhibition of bound fibrinogen in the presence of RGD peptide. The ELISA was performed as described previously.4 Briefly, GPIIb/IIIa was incubated in a 96 well Maxisorp plate (Nunc) (10 μg ml^−1) overnight at 4° C. The plate was blocked for non-specific interactions using BSA (3.5 wt%, 3 hr). Varying peptides concentrations and fibrinogen (40 nM) was incubated in the plate for 3 hr at room temperature. Fibrinogen antibody (HRP) (1:20,000 dilution) as added (1 hr). The substrate (2,2′-Azinobis[3-ethylbenzothiazoline-6-sulfonic acid]-diammonium salt-ABTS) was added and the absorbance measured at 405 nm. Peptide concentrations are reported as total molecule molarity as opposed to normalized [RGD].

MIN6 cells = MIN6 cells encapsulated in PEG diacrylate gels with RGD, metabolic activity by Alamar Blue assay; type: cell-based; settings: FIG. 19; for MIN6 viability / cell survival: 100 μM RGD in PEG gel, 10-day study
Excerpt: To test whether cyclic RGD, when encapsulated in PEG gels may enhance the survival of MIN6 cells, cyclic RGD was incorporated into PEG gels and applied to cell cultures of MIN6 cells. A cyclic RGD dimer was synthesized on-resin using Traut's reagent. The dimer contained a free thiol, which could be utilized for conjugation into PEG networks via thiol-acrylate photopolymerizations.
To examine whether the cyclic RGD derivatives could enhance cell viability, MIN6 cells were encapsulated at a relatively low density (5×10^6 cells mL^−1, data not published) in PEG diacrylate gels with varying amounts of RGD. Cell metabolic activity was measured using an Alamar Blue assay. […] Total molar RGD concentration was held constant during the study.

Molecule | IC50 (GPIIb/IIIa) | potency relative to linear RGD (compound #1) (GPIIb/IIIa; competitive binding ELISA) | MIN6 viability / cell survival (MIN6 cells) | MIN6 metabolic activity relative to linear counterpart at the same concentration (MIN6 cells; 400 μM RGD in PEG gel, 5×10^6 cells mL^−1) | IC50 (GPIIb/IIIa; Table 2, mean ± SEM, triplicate, repeated twice, peptide concentration as total molecule molarity, not normalized [RGD], read-out: IC50(μM), inhibition of fibrinogen binding to GPIIb/IIIa)
CC(=O)N[C@H]1CSC2CC3CC(C(=O)NCCCC[C@@H](C(N)=O)NC(=O)[C@@H](Cc4ccccc4)NC(=O)[C@H](CO)NC(=O)[C@H](CC(=O)O)NC(=O)CNC(=O)[C@H](CCCNC(=N)N)NC1=O)C2C3 (stereo partly shown) [Ac-c[CRGDSfK(Norbornene)]-NH2] (Ac-CRGDS[dF]K-NH2; linker 1-7 via X2) | 0.36 ± 0.09 µM |  |  |  | 
N=C(N)NCCC[C@@H]1NC(=O)[C@@H](NC(=O)CNC(=O)CNC(=O)[C@@H](N)CS)CSCCCOC(=O)NCCCC[C@@H](C(N)=O)NC(=O)[C@@H](Cc2ccccc2)NC(=O)[C@H](CO)NC(=O)[C@H](CC(=O)O)NC(=O)CNC1=O [Compound #2, H-CGGc[CRGDSfK(Alloc)]-NH2] (H-CGGCRGDS[dF]K-NH2; linker 4-10 via X1) |  | enhanced potency | increased viability | significantly enhanced metabolic activity | 
N=C(N)NCCC[C@@H]1NC(=O)[C@@H](NC(=O)CNC(=O)CNC(=O)[C@@H](N)CSCC(CCC(=O)NCCCC[C@H](NC(=O)CN)C(=O)NCC(=O)NCCCCCC(=O)NCC(=O)N[C@@H](CCCCNC(=O)CCC(CSC[C@H](N)C(=O)NCC(=O)NCC(=O)N[C@H]2CSCCCOC(=O)NCCCC[C@@H](C(N)=O)NC(=O)[C@@H](Cc3ccccc3)NC(=O)[C@H](CO)NC(=O)[C@H](CC(=O)O)NC(=O)CNC(=O)[C@H](CCCNC(=N)N)NC2=O)SC[C@H](N)C(=O)NCC(=O)NCC(=O)N[C@H]2CSCCCOC(=O)NCCCC[C@@H](C(N)=O)NC(=O)[C@@H](Cc3ccccc3)NC(=O)[C@H](CO)NC(=O)[C@H](CC(=O)O)NC(=O)CNC(=O)[C@H](CCCNC(=N)N)NC2=O)C(=O)NCC(N)=O)SC[C@H](N)C(=O)NCC(=O)NCC(=O)N[C@H]2CSCCCOC(=O)NCCCC[C@@H](C(N)=O)NC(=O)[C@@H](Cc3ccccc3)NC(=O)[C@H](CO)NC(=O)[C@H](CC(=O)O)NC(=O)CNC(=O)[C@H](CCCNC(=N)N)NC2=O)CSCCCOC(=O)NCCCC[C@@H](C(N)=O)NC(=O)[C@@H](Cc2ccccc2)NC(=O)[C@H](CO)NC(=O)[C@H](CC(=O)O)NC(=O)CNC1=O (stereo partly shown) [Compound #7] | 0.012 ± 0.003 µM |  |  |  | 
H-CGGRGDS-NH2 [Compound #1, H-CGGRGDS-NH2] |  |  | not able to support cell survival |  | 15.4 ± 4.2 µM

Reference: patent publication US20130197189A1, “Method For Synthesizing A Cyclic Multivalent Peptide Using A Thiol-Mediated Reaction” (The Regents of the University of Colorado, A Body Corporate, priority 2010, published 2013)
